According to PubChem BioAssay AID248 (DTP/NCI, 2004):
“And” between values parts separate entries of the source, which are not always exact repeats. Equal entries are not always repeated. Toxic doses and inconclusive results are not listed. No stated cut-off is given here; in the data, active means T/C of 150% or more; inactive means T/C below 125%.

Test system: L1210 leukemia ip in BDF1 mice, survival T/C
Test: NCI In Vivo Anticancer Drug Screen. Data for tumor model L1210 Leukemia (intraperitoneal) in B6D2F1 (BDF1) mice
Conditions: endpoint: mean survival time, higher = longer survival
How it was run: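 Antitumor effect is assessed in tumor-bearing animals. Survival in the compound arm is compared with a vehicle-dosed control arm and expressed as their quotient.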

[1] = dose: 100.0 mg/kg/injection, schedule: Q01DX001 (ip), vehicle: Klucel (hydroxypropylcellulose) (HPC)
[2] = dose: 100.0 mg/kg/injection, schedule: Q01DX009 (ip), vehicle: Klucel (hydroxypropylcellulose) (HPC)
[3] = dose: 100.0 mg/kg/injection, schedule: Q04DX003 (ip), vehicle: Klucel (hydroxypropylcellulose) (HPC)
[4] = dose: 200.0 mg/kg/injection, schedule: Q01DX001 (ip), vehicle: Klucel (hydroxypropylcellulose) (HPC)
[5] = dose: 200.0 mg/kg/injection, schedule: Q01DX009 (ip), vehicle: Klucel (hydroxypropylcellulose) (HPC)
[6] = dose: 200.0 mg/kg/injection, schedule: Q04DX003 (ip), vehicle: Klucel (hydroxypropylcellulose) (HPC)
[7] = dose: 400.0 mg/kg/injection, schedule: Q01DX009 (ip), vehicle: Klucel (hydroxypropylcellulose) (HPC)
[8] = dose: 400.0 mg/kg/injection, schedule: Q04DX003 (ip), vehicle: Klucel (hydroxypropylcellulose) (HPC)
[9] = dose: 100.0 mg/kg/injection, schedule: Q01DX009 (ip), vehicle: saline with Tween-80
[10] = dose: 200.0 mg/kg/injection, schedule: Q01DX009 (ip), vehicle: saline with Tween-80
[11] = dose: 400.0 mg/kg/injection, schedule: Q01DX009 (ip), vehicle: saline with Tween-80
[12] = dose: 100.0 mg/kg/injection, schedule: Q04DX003 (ip), vehicle: saline
[13] = dose: 200.0 mg/kg/injection, schedule: Q04DX003 (ip), vehicle: saline
[14] = dose: 400.0 mg/kg/injection, schedule: Q04DX003 (ip), vehicle: saline
[15] = dose: 25.0 mg/kg/injection, schedule: Q01DX009 (ip), vehicle: Klucel (hydroxypropylcellulose) (HPC)

Measured: T/C

CN=NC(OC(C)=O)(c1ccccc1)c1ccccc1
inactive: [1] 101 % of control | [2] 100 % of control | [3] 108 % of control | [4] 95 % of control | [5] 97 % of control | [6] 103 % of control | dose: 400.0 mg/kg/injection, schedule: Q01DX001 (ip), vehicle: Klucel (hydroxypropylcellulose) (HPC) 94 % of control | [7] 105 % of control | [8] 101 % of control

NC(=O)c1nc(-c2ccccc2)c(-c2ccccc2)[nH]c1=O
inactive: [9] 104 % of control | [10] 95 % of control | [11] 96 % of control

COCc1c(C)[nH]c2ccc(N(C)C)cc2c1=O
inactive: [9] 97 % of control | [10] 103 % of control | [11] 105 % of control

Cc1cc(=O)[nH]n1-c1ccc(N)cc1
inactive: [3] 105 % of control | [6] 94 % of control | [8] 103 % of control

COc1cc([N+](=O)[O-])ccc1NC(=O)C(Br)C(Br)c1ccccc1 (stereo unspecified)
inactive: dose: 100.0 mg/kg/injection, schedule: Q01DX009 (ip), vehicle: other 110 % of control | dose: 200.0 mg/kg/injection, schedule: Q01DX009 (ip), vehicle: other 96 % of control | dose: 400.0 mg/kg/injection, schedule: Q01DX009 (ip), vehicle: other 88 % of control

NNc1nnc(-c2ccccc2)c2ccccc12
inactive: dose: 15.0 mg/kg/injection, schedule: Q01DX001 (ip), vehicle: carboxymethylcellulose (CMC) 95 % of control | dose: 30.0 mg/kg/injection, schedule: Q01DX001 (ip), vehicle: carboxymethylcellulose (CMC) 101 % of control | dose: 60.0 mg/kg/injection, schedule: Q01DX001 (ip), vehicle: carboxymethylcellulose (CMC) 100 % of control

COc1ccc(C[C@H]2NC[C@H](O)[C@H]2OC(C)=O)cc1
inactive: dose: 25.0 mg/kg/injection, schedule: Q01DX Z (ip), vehicle: saline 109 % of control | dose: 50.0 mg/kg/injection, schedule: Q01DX Z (ip), vehicle: saline 102 % of control | dose: 100.0 mg/kg/injection, schedule: Q01DX Z (ip), vehicle: saline 109 % of control | dose: 200.0 mg/kg/injection, schedule: Q01DX Z (ip), vehicle: saline 92 % of control and 107 % of control

CC(=O)c1cccc(NC(=O)Oc2ccc3c(C)cc(=O)oc3c2)c1
inactive: [2] 98 % of control | [5] 101 % of control | [7] 101 % of control

CCCCCCCCCCC(OO)C(=O)OC(C)(C)C (stereo unspecified)
inactive: dose: 100.0 mg/kg/injection, schedule: Q04DX002 (ip), vehicle: Klucel (hydroxypropylcellulose) (HPC) 95 % of control | dose: 200.0 mg/kg/injection, schedule: Q04DX002 (ip), vehicle: Klucel (hydroxypropylcellulose) (HPC) 91 % of control | dose: 400.0 mg/kg/injection, schedule: Q04DX002 (ip), vehicle: Klucel (hydroxypropylcellulose) (HPC) 91 % of control

CC(=O)NCCOc1ccc(N)cc1Cl
inactive: [12] 94 % of control | [13] 92 % of control | [14] 91 % of control

CCCCCC(CN(C)C)C(=O)/C=C/c1c(Cl)cccc1Cl (stereo unspecified)
inactive: [15] 106 % of control

O=C(O)CC(C[N+](=O)[O-])C(F)(F)C(F)(F)C(F)(F)F (stereo unspecified)
inactive: dose: 100.0 mg/kg/injection, schedule: Q01DX001 (ip), vehicle: saline 97 % of control | dose: 200.0 mg/kg/injection, schedule: Q01DX001 (ip), vehicle: saline 112 % of control | dose: 400.0 mg/kg/injection, schedule: Q01DX001 (ip), vehicle: saline 101 % of control

C=C1c2c(Cl)cccc2C(CC)(CC)c2cccc(Cl)c21
inactive: dose: 100.0 mg/kg/injection, schedule: Q04DX003 (ip), vehicle: saline with Tween-80 94 % of control | dose: 200.0 mg/kg/injection, schedule: Q04DX003 (ip), vehicle: saline with Tween-80 94 % of control | dose: 400.0 mg/kg/injection, schedule: Q04DX003 (ip), vehicle: saline with Tween-80 92 % of control

Cc1ccc(C(=O)OCC(=O)c2ccc(-c3ccccc3)cc2)cc1
inactive: dose: 100.0 mg/kg/injection, schedule: Q01DX001 (ip), vehicle: other 89 % of control | dose: 200.0 mg/kg/injection, schedule: Q01DX001 (ip), vehicle: other 90 % of control

CCN(CC)c1cccc(OC(=O)Nc2ccc(SC)cc2)c1
inactive: [9] 95 % of control | [10] 103 % of control | [11] 97 % of control

O=C(COCC(=O)N/N=C/c1c(O)ccc2ccccc12)N/N=C/c1c(O)ccc2ccccc12
inactive: [2] 98 % of control | [5] 89 % of control | [7] 95 % of control

CC(N)CN(C)C (stereo unspecified)
inactive: dose: 100.0 mg/kg/injection, schedule: Q01DX009 (ip), vehicle: saline 98 % of control | [12] 99 % of control | dose: 200.0 mg/kg/injection, schedule: Q01DX009 (ip), vehicle: saline 106 % of control | [13] 100 % of control | [14] 96 % of control

CCN(CC)CCOc1cccc(O)c1
inactive: dose: 25.0 mg/kg/injection, schedule: Q04DX003 (ip), vehicle: Klucel (hydroxypropylcellulose) (HPC) 94 % of control | dose: 50.0 mg/kg/injection, schedule: Q04DX003 (ip), vehicle: Klucel (hydroxypropylcellulose) (HPC) 97 % of control | [1] 93 % of control | [3] 100 % of control and 107 % of control | [4] 91 % of control

C(=C\c1ccccc1)/C=N/Nc1nnc(N/N=C/C=C/c2ccccc2)c2ccccc12
inactive: dose: 50.0 mg/kg/injection, schedule: Q01DX001 (ip), vehicle: carboxymethylcellulose (CMC) 102 % of control | dose: 100.0 mg/kg/injection, schedule: Q01DX001 (ip), vehicle: carboxymethylcellulose (CMC) 94 % of control | dose: 200.0 mg/kg/injection, schedule: Q01DX001 (ip), vehicle: carboxymethylcellulose (CMC) 102 % of control | dose: 400.0 mg/kg/injection, schedule: Q01DX001 (ip), vehicle: carboxymethylcellulose (CMC) 90 % of control

CC(=O)OC1CCC2(C)C(CCC3C4CC=C(C(C)=O)C4(C)OC(=O)CC32)C1 (stereo unspecified)
inactive: dose: 12.5 mg/kg/injection, schedule: Q01DX009 (ip), vehicle: Klucel (hydroxypropylcellulose) (HPC) 98 % of control | [15] 96 % of control | dose: 50.0 mg/kg/injection, schedule: Q01DX009 (ip), vehicle: Klucel (hydroxypropylcellulose) (HPC) 98 % of control

N#CC12CCC(c3ccccc31)c1ccccc12
inactive: dose: 100.0 mg/kg/injection, schedule: Q04DX002 (ip), vehicle: gum acacia 99 % of control | dose: 200.0 mg/kg/injection, schedule: Q04DX002 (ip), vehicle: gum acacia 101 % of control | dose: 400.0 mg/kg/injection, schedule: Q04DX002 (ip), vehicle: gum acacia 92 % of control

CC(=O)OC1CCC2(C)C3=C(CCC2C1(C)C)C1CCC(C(C)CCC=C(C)C)C1(C)CC3 (stereo unspecified)
inactive: [3] 96 % of control | [6] 96 % of control

O=S(=O)(c1ccccc1)c1cccs1
inactive: dose: 50.0 mg/kg/injection, schedule: Q01DX009 (ip), vehicle: saline with Tween-80 101 % of control | [9] 96 % of control | [10] 105 % of control

COc1cc(Cc2nccc3ccccc23)cc([N+](=O)[O-])c1OC
inactive: dose: 50.0 mg/kg/injection, schedule: Q04DX002 (ip), vehicle: saline with Tween-80 97 % of control | dose: 100.0 mg/kg/injection, schedule: Q04DX002 (ip), vehicle: saline with Tween-80 93 % of control | dose: 200.0 mg/kg/injection, schedule: Q04DX002 (ip), vehicle: saline with Tween-80 90 % of control | dose: 400.0 mg/kg/injection, schedule: Q04DX002 (ip), vehicle: saline with Tween-80 87 % of control
